Source: BindingDB's records for patent US9334290 (Bristol Myers Squibb, 2016)
pIC50: −log10 of the molar value.

Target: Tyrosine-protein kinase JAK2 (Homo sapiens, UniProt O60674)
Assay: Jak2 Tyrosine Kinase Assay
Conditions: pH 7.4; 25 °C

Chain of Tyrosine-protein kinase JAK2 (O60674 whole entry): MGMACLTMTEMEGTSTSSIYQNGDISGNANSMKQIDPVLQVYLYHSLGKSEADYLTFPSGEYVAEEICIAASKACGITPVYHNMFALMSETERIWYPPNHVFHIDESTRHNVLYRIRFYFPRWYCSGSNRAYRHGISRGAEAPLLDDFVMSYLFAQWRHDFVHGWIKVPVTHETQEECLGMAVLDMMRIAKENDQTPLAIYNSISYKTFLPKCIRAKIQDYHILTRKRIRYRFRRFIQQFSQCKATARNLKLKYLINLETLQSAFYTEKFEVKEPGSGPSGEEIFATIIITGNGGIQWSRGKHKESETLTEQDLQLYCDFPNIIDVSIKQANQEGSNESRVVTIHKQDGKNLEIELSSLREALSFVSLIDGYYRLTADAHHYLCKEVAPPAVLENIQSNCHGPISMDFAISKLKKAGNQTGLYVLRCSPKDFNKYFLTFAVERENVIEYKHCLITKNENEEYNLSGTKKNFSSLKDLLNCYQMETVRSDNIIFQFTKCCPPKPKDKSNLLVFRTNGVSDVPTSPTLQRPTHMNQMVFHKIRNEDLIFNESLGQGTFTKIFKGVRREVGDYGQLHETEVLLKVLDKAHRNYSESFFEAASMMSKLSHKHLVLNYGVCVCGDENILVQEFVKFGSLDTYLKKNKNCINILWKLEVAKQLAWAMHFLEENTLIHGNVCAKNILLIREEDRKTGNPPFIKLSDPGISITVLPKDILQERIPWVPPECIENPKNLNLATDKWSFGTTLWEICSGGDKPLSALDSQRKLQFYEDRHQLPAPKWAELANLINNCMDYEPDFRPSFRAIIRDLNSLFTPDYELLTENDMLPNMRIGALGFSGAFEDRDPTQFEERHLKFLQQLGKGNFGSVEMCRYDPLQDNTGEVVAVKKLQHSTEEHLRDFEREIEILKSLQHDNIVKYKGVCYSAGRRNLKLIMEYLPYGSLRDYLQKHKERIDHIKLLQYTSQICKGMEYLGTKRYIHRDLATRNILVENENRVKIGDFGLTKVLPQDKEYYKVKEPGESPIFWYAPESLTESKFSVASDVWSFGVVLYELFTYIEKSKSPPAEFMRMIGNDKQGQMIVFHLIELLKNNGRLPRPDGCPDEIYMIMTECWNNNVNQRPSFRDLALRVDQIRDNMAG

- pIC50: 6.12
SMILES: Cc1c(-c2c(F)cc(C(N)=O)c3[nH]c4cc(C(C)(C)O)ccc4c23)cccc1-n1c(=O)[nH]c2c(F)cccc2c1=O [US9334290, 21]
